Assay results reported in PMC10384010, “Chromatographic Data in Statistical Analysis of BBB Permeability Indices” (Membranes, 2023).
Read-outs that look alike come from different tables or passages of the source.

Experiments:
[1] = Reversed-phase TLC on RP-2 silanized plates (Rf); assay type: physicochemical; conditions: silica gel 60 RP-2 F254 silanized; water:methanol:acetonitrile 60:20:20, ammonium acetate pH 7.4
[2] = cited from earlier work
[3] = Normal-phase TLC on silica gel 60 F254 (Rf); assay type: physicochemical; conditions: water:methanol:acetonitrile 60:20:20, ammonium acetate pH 7.4
[4] = cited from earlier work; remark: listed apart in the source
[5] = entering the CNS / not entering the CNS; ref Drugbank [36]; cited from earlier work
[6] = HPLC on IAM (immobilized artificial membrane) column, retention factor; assay type: physicochemical; conditions: IAM.PC.DD.2 column; for k(IAM) retention factor: 10 mM phosphate buffer pH 7.4:acetonitrile 80:20; for logkIAM: logarithm of retention factor, phosphate buffer pH 7.4:acetonitrile 80:20
[7] = plasma protein binding, given as fraction, ref Drugbank

Row | Structure (SMILES) | RP (Rf from RP-2 TLC plate) [1] | NP (Rf from NP TLC plate) [3] | k(IAM) retention factor [6] | logkIAM [6] | PB (protein binding) ([2]; plasma) | Kp,uu,brain (unbound brain-to-plasma drug partition coefficient) ([4]; in vivo) | CNS+/- [5] | PB (protein binding) [2, 7] | Kp,uu,brain (unbound brain-to-plasma drug partition coefficient) [4]
1 | CN1C[C@H](C(=O)N[C@]2(C)O[C@@]3(O)[C@@H]4CCCN4C(=O)[C@H](Cc4ccccc4)N3C2=O)C[C@@H]2c3cccc4[nH]cc(c34)C[C@H]21 [dihydroergotamine] | 0.78 | 0.72 | – | – | 0.93 | 0.02 | 0 | – | –
2 | O=c1n(CCCN2CCN(c3cccc(Cl)c3)CC2)nc2ccccn12 [trazodone] | 0.76 | 0.71 | 9.30 | 0.97 | – | – | 1 | 0.92 | 1.54
3 | CN1CCN(C2=Nc3cc(Cl)ccc3Nc3ccccc32)CC1 [clozapine] | – | 0.45 | 50.94 | 1.71 | – | – | – | 0.99 | 3.83
4 | CN(C)CCC=C1c2ccccc2COc2ccccc21 [doxepin] | – | 0.3 | – | – | – | – | 1 | 0.755 | 3.11
5 | CCCC(CCC)C(=O)O [valproic acid] | 0.04 | 0.69 | 0.08 | -1.09 | – | – | 1 | 0.85 | –
6 | CN(C)CCCN1c2ccccc2Sc2ccc(Cl)cc21 [chlorpromazine] | 0.49 | 0.43 | 58.85 | 1.77 | – | – | – | 0.9 | 3.41
7 | O=C(CCCN1CCC(O)(c2ccc(Cl)cc2)CC1)c1ccc(F)cc1 [haloperidol] | 0.61 | 0.66 | 23.74 | 1.38 | – | – | – | 0.92 | 1.77
8 | O=C1NC(=O)C(c2ccccc2)(c2ccccc2)N1 [phenytoin] | 0.87 | 0.97 | 1.78 | 0.25 | – | – | 1 | 0.9 | 0.66

Continued, in another order:

Row | RP (Rf from RP-2 TLC plate) [1] | NP (Rf from NP TLC plate) [3] | k(IAM) retention factor [6] | logkIAM [6] | Structure (SMILES) | PB (protein binding) ([2]; plasma) | Kp,uu,brain (unbound brain-to-plasma drug partition coefficient) ([4]; in vivo) | CNS+/- [5] | PB (protein binding) [2, 7] | Kp,uu,brain (unbound brain-to-plasma drug partition coefficient) [4]
9 | 0.58 | 0.39 | 5.83 | 0.77 | CN1CCN2c3ncccc3Cc3ccccc3C2C1 (stereo not shown) [mirtazapine] | – | – | 1 | – | 3.85
10 | 0.49 | 0.43 | 14.96 | 1.17 | CC(CN1c2ccccc2Sc2ccccc21)N(C)C (stereo not shown) [promethazine] | – | – | 1 | 0.93 | –
11 | 0.6 | 0.33 | 0.05 | -1.29 | CCOC(=O)[C@H](CCc1ccccc1)N[C@@H](C)C(=O)N1CCC[C@H]1C(=O)O [enalapril] | – | – | 0 | 0.55 | –
12 | 0.85 | 0.38 | 0.10 | -1.02 | C[C@](N)(Cc1ccc(O)c(O)c1)C(=O)O [methyldopa] | – | – | 0 | 0.2 | –
13 | 0.65 | 0.62 | 26.27 | 1.42 | COc1ccc(CCN2CCC(Nc3nc4ccccc4n3Cc3ccc(F)cc3)CC2)cc1 [astemizol] | – | – | 1 | 0.967 | –
14 | 0.57 | 0.67 | 6.74 | 0.83 | CC(C)NCC(O)COc1ccc(COCCOC(C)C)cc1 (stereo not shown) [bisoprolol] | – | – | 0 | 0.3 | –
